For one series, the system named is HIV-1. Description: anti-HIV-1 activity, National Cancer Institute (Weislow) protocol. As to conditions: for IC50: IC50 beside EC50 and TI50 (not further defined in the patent); for Act.: activity class as per the NCI protocol. It is filed as cell-based.
The mark [1] stands for this setting: Human immunodeficiency virus 1, NCI Weislow protocol.

In general, melting point refers to the temperature, or range, at which the solid turns liquid. By IC50 is commonly meant the midpoint of a concentration-inhibition curve. Low readings indicate inhibition by little substance, high ones a need for much substance. The compound `CN1[C@@H](c2ccc(O)cc2)c2ccccc2S1(=O)=O` [Compound 21, (+)-4-[(3S)-2-Methyl-1,1-dioxo-2,3-dihydrobenzo[d]isothiazol-3-yl]phenol] came in with a melting point of 178 to 180 °C. Besides, in the series on HIV-1 (setting [1]), the half-maximal inhibitory concentration (IC50) is over 200 µM. The Act. result with HIV-1 was “I”.

`CN1[C@H](c2ccc(O)cc2)c2ccccc2S1(=O)=O` [Compound 22, (−)-4-[(3R)-2-Methyl-1,1-dioxo-2,3-dihydrobenzo-[d]-isothiazol-3-yl]phenol] had a melting point of 178 to 179 °C. Also, the 50% inhibitory concentration (IC50) in the series on HIV-1 (setting [1]) is over 200 µM. Besides, in the series on HIV-1, the Act. entry was “I”.

What is called EC50 is the concentration that produces a half-maximal response. “(R,S)-2,5-Dimethyl-3-phenyl-2,3-dihydrobenzo[d]isothiazole 1,1-dioxide [Compound 47]”: in the series on HIV-1 (NCI Weislow protocol), 156 µM corresponded to half-maximal inhibition (IC50). This compound also showed a TI50 in the series on HIV-1 (NCI Weislow protocol, therapeutic index column) of 5.03. Moreover, in the series with HIV-1 (anti-HIV-1 activity, NCI Weislow protocol), the EC50 came out at 31 µM.

In the series on HIV-1 (NCI Weislow protocol), “(R,S)-4-(2-Methyl-1,1-dioxo-2,3-dihydrobenzo[d]isothiazol-3-yl)phenol [Compound 20]” gave a half-inhibitory concentration (IC50) of over 200 µM. The Act. entry in the series on HIV-1 is listed as “I”.

For the origin of these results see patent US6562850B1, “Methods of synthesizing sultams and anti-viral compositions” (The University of Tennessee Research Corporation, priority 1998, dated 2003).
